The test system of assay [1] is human ATM. The note with it: ref [5] Howes, A. C., Perisic, O. & Williams, R. L. Sci. Adv. 9, eadi8291 (2023); cited from earlier work. The text has this:
Based on a radiolabeled ATP-based kinase assay, which is the “gold standard” for the quantification of protein kinase activity, we managed to achieve a 30-fold increase in ATM/Tel1 activity (Fig. 1a; Supplementary Fig. S3). This level of activati ...

The subject of assay [2] is ATM/Tel1. Nature of the assay: Endogenous activation of ATM/Tel1 in cultured yeast cells. The following applies: 0.05% MMS added at OD600 ≈ 4, cells collected 60 min later. Format: cell-based, Schizosaccharomyces pombe. The procedure: (§1) Purification of Yeast ATM/Tel1
S. pombe stain CC5060 (h–leu1-32 ura4- D18 kanMX6:nmt1:TAP-tel1)[1] was grown in YPD medium to the stationary phase. 0.05% MMS(MACKLIN)was added at OD600 ≈ 4 and c ells were collected 60 min later. About 100 g cells were harvested, washed, and resuspended in extraction buffer (50 mM HEPES [pH 7.6], 300 mM ammonium sulfate, 0.5 mM EDTA, 5 mM β-ME, 10% (v/v) glycerol, 0.01% (v/v) NP-40 and protease inhibitors), and a whole-cell extraction was prepared as previously described. This whole -cell extract was selectively precipitated in 30-55% ammonium sulfate and resuspended using binding buffer (50 mM HEPES [pH 7.6], 1 mM EDTA, 10 mM ZnCl2, 5 mM β- ME, and protease inhibitors). […] The ATM/Tel1 elution was flash- frozen in liquid nitrogen, and analyzed by SDS-PAGE and EM examination.
(§2) Expression and Purification of full-length CHK2, MRN (Mre11, Rad50-core, Nbs1) The codon-optimized gene fragments for human full- length CHK2, yeast Mre11, Rad50-core (lacking the coiled-coil motif) were cloned into the pET22b vector with a C-terminal 6× His tag and Nbs1 were cloned into the pET22b vector with a C-terminal 6× His tag and a GST tag, and transformed into E. coli BL21(DE3). […] The eluted CHK2 and MRN proteins were flash-frozen in liquid nitrogen and analyzed by SDS-PAGE and EM. […]

Assay [3] deals with T1, active ATM/Tel1 (Schizosaccharomyces pombe, UniProt O74630).
T1 construct: TAP (N, cleaved yes); made in house; host or cells: Schizosaccharomyces pombe strain CC5060 (TAP-tel1 under the nmt1 promoter), treated with 0.05% MMS
T1 sequence (O74630 whole entry): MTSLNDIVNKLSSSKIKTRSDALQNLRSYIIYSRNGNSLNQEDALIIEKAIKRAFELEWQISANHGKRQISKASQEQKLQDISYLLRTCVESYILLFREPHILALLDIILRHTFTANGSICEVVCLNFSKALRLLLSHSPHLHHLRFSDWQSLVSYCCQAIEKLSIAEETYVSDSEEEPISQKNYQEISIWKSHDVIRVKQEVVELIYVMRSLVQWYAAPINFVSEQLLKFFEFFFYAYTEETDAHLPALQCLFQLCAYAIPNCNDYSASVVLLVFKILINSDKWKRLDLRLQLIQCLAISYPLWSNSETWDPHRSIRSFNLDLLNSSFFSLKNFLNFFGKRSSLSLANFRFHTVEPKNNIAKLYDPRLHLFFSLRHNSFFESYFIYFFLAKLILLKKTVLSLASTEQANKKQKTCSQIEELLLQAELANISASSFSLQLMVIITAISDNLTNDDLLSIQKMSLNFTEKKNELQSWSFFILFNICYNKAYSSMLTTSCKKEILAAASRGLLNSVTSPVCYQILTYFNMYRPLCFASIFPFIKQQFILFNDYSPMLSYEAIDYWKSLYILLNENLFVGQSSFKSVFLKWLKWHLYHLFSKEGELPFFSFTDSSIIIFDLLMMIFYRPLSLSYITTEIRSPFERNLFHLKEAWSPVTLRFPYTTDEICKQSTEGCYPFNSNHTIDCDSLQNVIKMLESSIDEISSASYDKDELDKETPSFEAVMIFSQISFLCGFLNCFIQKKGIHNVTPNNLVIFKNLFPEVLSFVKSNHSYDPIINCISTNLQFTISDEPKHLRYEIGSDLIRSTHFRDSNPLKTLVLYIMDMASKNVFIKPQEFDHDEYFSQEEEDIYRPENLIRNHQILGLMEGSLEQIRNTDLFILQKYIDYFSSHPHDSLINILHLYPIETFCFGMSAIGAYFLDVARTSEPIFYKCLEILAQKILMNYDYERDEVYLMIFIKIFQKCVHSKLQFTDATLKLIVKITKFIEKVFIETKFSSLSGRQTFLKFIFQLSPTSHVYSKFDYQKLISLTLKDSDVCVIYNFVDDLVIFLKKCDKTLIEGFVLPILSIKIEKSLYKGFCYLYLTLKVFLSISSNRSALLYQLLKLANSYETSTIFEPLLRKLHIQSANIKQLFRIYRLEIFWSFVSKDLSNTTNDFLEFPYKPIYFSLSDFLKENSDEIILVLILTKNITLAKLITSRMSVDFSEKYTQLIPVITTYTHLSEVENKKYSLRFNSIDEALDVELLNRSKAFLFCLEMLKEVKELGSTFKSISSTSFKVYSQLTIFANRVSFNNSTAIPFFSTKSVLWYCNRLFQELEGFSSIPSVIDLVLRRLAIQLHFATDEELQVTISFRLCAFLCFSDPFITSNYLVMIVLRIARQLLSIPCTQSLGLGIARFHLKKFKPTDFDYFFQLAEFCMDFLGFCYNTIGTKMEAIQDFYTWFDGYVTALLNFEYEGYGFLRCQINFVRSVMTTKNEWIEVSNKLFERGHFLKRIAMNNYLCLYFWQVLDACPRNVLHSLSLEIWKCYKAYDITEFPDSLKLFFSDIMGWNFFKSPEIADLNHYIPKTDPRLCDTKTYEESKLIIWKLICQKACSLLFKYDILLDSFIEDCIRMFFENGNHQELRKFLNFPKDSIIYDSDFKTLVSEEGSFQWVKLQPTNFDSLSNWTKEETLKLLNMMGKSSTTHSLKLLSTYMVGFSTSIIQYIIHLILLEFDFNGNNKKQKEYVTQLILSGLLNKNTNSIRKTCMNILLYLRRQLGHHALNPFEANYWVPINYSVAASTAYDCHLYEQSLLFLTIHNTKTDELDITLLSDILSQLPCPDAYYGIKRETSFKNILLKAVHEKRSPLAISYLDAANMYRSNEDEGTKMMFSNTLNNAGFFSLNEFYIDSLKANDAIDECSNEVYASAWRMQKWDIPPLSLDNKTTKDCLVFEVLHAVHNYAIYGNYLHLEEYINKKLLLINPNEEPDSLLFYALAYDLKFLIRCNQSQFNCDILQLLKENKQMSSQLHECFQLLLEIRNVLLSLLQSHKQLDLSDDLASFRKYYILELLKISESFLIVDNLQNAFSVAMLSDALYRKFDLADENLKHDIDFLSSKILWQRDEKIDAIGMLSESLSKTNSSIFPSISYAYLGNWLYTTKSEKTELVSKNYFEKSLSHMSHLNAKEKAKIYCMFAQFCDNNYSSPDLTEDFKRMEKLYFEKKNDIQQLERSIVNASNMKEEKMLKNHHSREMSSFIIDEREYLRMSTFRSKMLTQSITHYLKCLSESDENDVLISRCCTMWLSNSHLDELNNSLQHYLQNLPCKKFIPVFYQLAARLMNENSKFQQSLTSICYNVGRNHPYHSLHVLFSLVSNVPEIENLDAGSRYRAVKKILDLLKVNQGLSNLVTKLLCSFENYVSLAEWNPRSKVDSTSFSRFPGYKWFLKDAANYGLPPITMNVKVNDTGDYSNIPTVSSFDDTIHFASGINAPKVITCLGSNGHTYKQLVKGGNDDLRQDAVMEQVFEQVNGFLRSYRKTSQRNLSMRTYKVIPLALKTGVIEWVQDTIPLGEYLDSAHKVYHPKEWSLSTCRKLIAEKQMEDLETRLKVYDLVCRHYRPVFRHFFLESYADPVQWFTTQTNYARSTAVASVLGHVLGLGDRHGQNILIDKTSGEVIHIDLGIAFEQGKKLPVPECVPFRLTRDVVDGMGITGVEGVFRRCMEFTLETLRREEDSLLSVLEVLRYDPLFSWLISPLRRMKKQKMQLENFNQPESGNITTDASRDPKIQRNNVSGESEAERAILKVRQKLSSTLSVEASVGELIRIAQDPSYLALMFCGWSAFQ
Nature of the assay: Surface plasmon resonance, CHK2 immobilized, active ATM/Tel1. Format: binding. The note with it: 20 °C, experiment independently repeated three times. The procedure:
as §1
(§3) S. pombe stain CC5060 (h–leu1-32 ura4- D18 kanMX6:nmt1:TAP-tel1)[1] was grown in YPD medium to the stationary phase. 0.05% MMS(MACKLIN)was added at OD600 ≈ 4 and c ells were collected 60 min later. About 100 g cells were harvested, washed, and resuspended in extraction buffer (50 mM HEPES [pH 7.6], 300 mM ammonium sulfate, 0.5 mM EDTA, 5 mM β-ME, 10% (v/v) glycerol, 0.01% (v/v) NP-40 and protease inhibitors), and a whole-cell extraction was prepared as previously described. […] The ATM/Tel1 elution was flash- frozen in liquid nitrogen, and analyzed by SDS-PAGE and EM examination.
as §2
(§4) to SDS- PAGE and analyzed by Western blot (WB) using pan- acetylated -Lysine (Rabbit monoclonal, Cat# 9441S, Cell Signaling Technology). and phospho-ATM/ATR substrate (pSQ/pTQ motif, Rabbit monoclonal, Cat# 6966, Cell Signaling Technology) antibodies. […]

The subject of assay [4] is active ATM/Tel1 dimer. Nature of the assay: Cryo-EM structure of active ATM/Tel1 with substrate peptide. The note with it: cryo-EM Structure 2, 3.6 Å; active ATM/Tel1 : 329 bp DNA : CHK2 peptide 1:20:200 with AMP-PNP, on ice 1 h. Format: binding, Schizosaccharomyces pombe. How it is done: The affinity chromatography sample of ATM/Tel1 was diluted to final concentrations of 0.05 mg/ml (50 mM HEPES [pH 7.6], 0.01% (v/v) NP- 40, 1 mM EDTA, 10 mM ZnCl 2, 5 mM β- ME, and protease inhibitors). Negative staining was used to evaluate the protein quality. In brief, 3 µl of freshly purified ATM/Tel1 was applied onto copper grids supported by a thin layer of glow - discharged carbon film (Zhongjingkeyi Technology Co., Ltd). After adsorption for 30 s, uranyl acetate (2% w/v) was used for negative staining at room temperature. The negatively stained grids were examined using FEI Talos L120C operated at 120 KeV. […]
The grids were imaged in a Titan Krios cryo-electron microscope (Thermo Fisher Scientific) operated at 300 keV at a magnification of 81,000 × (corresponding to a calibrated sampling of 1.07 Å per pixel). Movies were recorded by EPU with a Gatan K3 Summit direct electron detector, where each movie was composed of 32 individual frames with an exposure time of 3.8 s and a dose rate of 50 electrons per second per Å2. […]
Beam-induced sample motions were corrected using MotionCorr2[3] software, and contrast transfer function (CTF) parameters were estimated using CTFFIND4[4] software. […] All reported resolutions were calculated from gold standard refinement procedures with the FSC = 0.143 criterion implemented in cryoSPARC[5]. […]

The target in assay [5] is T2, basal ATM/Tel1 (Schizosaccharomyces pombe, UniProt O74630).
T2 construct: we endogenously purified basal; TAP (N, cleaved yes); made in house; host or cells: Schizosaccharomyces pombe strain CC5060 (TAP-tel1 under the nmt1 promoter)
T2 sequence (O74630 whole entry): as above
Nature of the assay: Surface plasmon resonance, CHK2 immobilized, basal ATM/Tel1. The note with it: 20 °C, experiment independently repeated three times. Format: binding. How it is done: as §1, §3, §2, §4
On the technique in general: Surface plasmon resonance follows binding to a sensor surface in real time, without labels.

The source of these data is article PMC11933327, “Asymmetric activation of dimeric ATM/Tel1 kinase” (Cell Discovery, 2025).

With `OO` [H2O2], the “level of activation of human ATM in vitro compared with the 30-fold activation of ATM/Tel1” value in assay [1] is listed as “comparable”.
Regarding `COS(C)(=O)=O` [methylmethane sulfonate], the “activation of cellular ATM/Tel1 (in words)” value in assay [2] is “endogenously activated the cellular ATM/Tel1”.
As for “LETVSTQELYSI [CHK2 peptide, 12-residue human CHK2 substrate peptide 63-74, custom-synthesized by Sangon, with an N-terminal NH2 and C-terminal COOH]”, the “affinity for active ATM/Tel1 relative to full-length CHK2” value in assay [3] (SPR (Supplementary Fig. S7)) was “comparable to that of the full-length CHK2”. Moreover, the “binding affinity for active ATM/Tel1 (in words)” value in assay [3] (SPR (Supplementary Fig. S7a)) was “increased affinity in the active state”. Moreover, in assay [4], the “monomers of the active dimer that bind the substrate peptide” value is reported as “only Mono1, but not Mono2, can bind to the CHK2 peptide”. Further, the “reduction of affinity for basal ATM/Tel1 compared to the active state” value in assay [5] (SPR (Supplementary Fig. S7)) is on record as “over 120 fold”. Besides, the “binding affinity for basal ATM/Tel1 (in words)” value in assay [5] (SPR (Supplementary Fig. S7b)) is on record as “significantly lower affinity”.
